One experiment addresses T1, human PDE9A2 (Homo sapiens, UniProt O76083).
T1 construct: made in house; host or cells: Sf9 insect cells (infected); crude lysate used as enzyme source
As to the kind of experiment: PDE9A2 enzymatic activity assay (scintillation proximity assay, SPA). Type of experiment: biochemical. To be noted: for inhibition at 10 µM: read-out: % inhibition of PDE9A2 (at 10 micromolar concentration), 10 micromolar concentration, values above 100% adjusted to 100%; for IC50: reported only as range 1-100 or 101-1200 nanomolar, specific value lies within range, read-out: IC50 within range [nanomolar (nM)]. On the technique in general: SPA uses beads or plates that emit light when radiolabelled molecules are held near them.

Another experiment addresses human PDE9A (Homo sapiens, UniProt O76083). To be noted: concentrations of up to 100 micromolar; cited from earlier work.
In another experiment the target is T2, Murine PDE9A (Mus musculus, UniProt O70628).
T2 sequence (O70628 1-534): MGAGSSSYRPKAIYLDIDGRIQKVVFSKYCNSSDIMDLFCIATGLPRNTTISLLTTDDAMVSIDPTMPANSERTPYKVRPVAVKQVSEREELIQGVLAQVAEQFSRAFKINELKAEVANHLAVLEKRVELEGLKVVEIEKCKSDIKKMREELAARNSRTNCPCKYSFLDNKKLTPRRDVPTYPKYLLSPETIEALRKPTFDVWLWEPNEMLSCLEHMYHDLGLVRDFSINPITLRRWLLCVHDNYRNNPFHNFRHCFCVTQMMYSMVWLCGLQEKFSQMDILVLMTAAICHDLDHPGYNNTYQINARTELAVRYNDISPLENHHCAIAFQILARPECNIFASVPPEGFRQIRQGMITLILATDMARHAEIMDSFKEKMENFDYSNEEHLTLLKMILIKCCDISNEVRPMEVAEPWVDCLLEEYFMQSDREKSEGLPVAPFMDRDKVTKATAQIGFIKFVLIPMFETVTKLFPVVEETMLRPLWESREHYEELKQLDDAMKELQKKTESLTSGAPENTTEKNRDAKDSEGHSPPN
The following applies: concentrations below 200 micromolar; cited from earlier work.

As a reminder, the IC50 is the concentration that inhibits the measured activity by half.

T1 sequence (O76083 1-533 isoform O76083-2): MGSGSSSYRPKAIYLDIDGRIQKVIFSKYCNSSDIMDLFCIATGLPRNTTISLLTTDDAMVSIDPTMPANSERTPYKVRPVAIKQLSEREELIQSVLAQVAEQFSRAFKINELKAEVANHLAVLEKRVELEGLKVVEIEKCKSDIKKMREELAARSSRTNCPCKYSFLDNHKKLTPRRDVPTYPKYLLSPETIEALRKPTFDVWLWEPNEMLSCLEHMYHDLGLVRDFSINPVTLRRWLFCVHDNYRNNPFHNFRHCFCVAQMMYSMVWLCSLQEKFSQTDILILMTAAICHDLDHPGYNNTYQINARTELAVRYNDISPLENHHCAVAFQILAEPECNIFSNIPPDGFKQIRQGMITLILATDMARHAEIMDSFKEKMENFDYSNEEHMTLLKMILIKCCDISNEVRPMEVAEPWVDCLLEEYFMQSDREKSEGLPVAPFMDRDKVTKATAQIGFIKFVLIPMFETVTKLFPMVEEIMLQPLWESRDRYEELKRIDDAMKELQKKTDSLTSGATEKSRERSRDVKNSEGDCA
human PDE9A, sequence (O76083 whole entry): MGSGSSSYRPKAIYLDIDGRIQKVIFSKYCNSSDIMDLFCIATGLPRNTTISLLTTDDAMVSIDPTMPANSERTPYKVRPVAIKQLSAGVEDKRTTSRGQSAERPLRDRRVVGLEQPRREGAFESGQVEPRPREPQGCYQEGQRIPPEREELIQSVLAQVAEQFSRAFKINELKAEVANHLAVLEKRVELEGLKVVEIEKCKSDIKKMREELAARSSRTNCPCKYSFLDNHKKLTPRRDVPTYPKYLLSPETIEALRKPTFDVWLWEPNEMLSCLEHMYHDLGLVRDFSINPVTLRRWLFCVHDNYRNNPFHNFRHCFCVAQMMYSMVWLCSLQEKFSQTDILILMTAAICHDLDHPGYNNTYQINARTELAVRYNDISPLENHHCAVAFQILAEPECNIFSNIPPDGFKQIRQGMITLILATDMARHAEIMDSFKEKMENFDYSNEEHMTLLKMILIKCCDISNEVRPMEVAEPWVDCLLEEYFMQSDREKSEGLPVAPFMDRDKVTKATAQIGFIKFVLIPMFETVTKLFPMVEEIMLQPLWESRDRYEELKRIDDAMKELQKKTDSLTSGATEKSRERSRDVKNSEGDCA

Regarding `O=c1[nH]c(Cc2ncccc2C(F)(F)F)nc2c1cnn2C1CCOCC1` [Example 63], at human PDE9A2, the inhibition at 10 µM stood at 92% and the IC50 is 101 to 1200 nM.

Consider `O=c1[nH]c(Cc2cccc(C(F)(F)F)n2)nc2c1cnn2C1CCOCC1` [Example 64], for which, on human PDE9A2, the inhibition at 10 µM came to 97% and the IC50 is 1 to 100 nM.

In the case of `O=c1[nH]c(Cc2cc(C(F)(F)F)ccn2)nc2c1cnn2C1CCOCC1` [Example 65], on human PDE9A2, the inhibition at 10 µM stood at 97% and the half-inhibitory concentration (IC50) is 1 to 100 nM.

For the compound `O=c1[nH]c(Cc2ncccn2)nc2c1cnn2C1CCOCC1` [Example 66], at human PDE9A2, the inhibition at 10 µM was determined as 91% and the IC50 was in the range of 101 to 1200 nM.

With `COc1cccnc1Cc1nc2c(cnn2C2CCOCC2)c(=O)[nH]1` [Example 67], on human PDE9A2, the inhibition at 10 µM was 95% and the half-inhibitory concentration (IC50) was 101 to 1200 nM.

Take `CC(=O)N1CCC(Oc2ccccc2Cc2nc3c(cnn3C3CCOCC3)c(=O)[nH]2)CC1` [Example 68]: on human PDE9A2, the inhibition at 10 µM is 97% and the concentration for half-maximal inhibition (IC50) lay within 1 to 100 nM.

Turning to `O=c1[nH]c(Cc2cccnc2)nc2c1cnn2C1CCOCC1` [Example 123], on human PDE9A2, the inhibition at 10 µM worked out at 91% and the 50% inhibitory concentration (IC50) fell in the range of 101 to 1200 nM.

For the compound `O=c1[nH]c(Cc2ccccc2OC2CCCC2)nc2c1cnn2C1CCOCC1` [Example 125], at human PDE9A2, the inhibition at 10 µM came to 95% and the IC50 was 1 to 100 nM.

Turning to `CC[C@H](C)Cc1nc2c(cnn2C2CCOCC2)c(=O)[nH]1` [Example 128], on human PDE9A2, the inhibition at 10 µM is 99% and the 50% inhibitory concentration (IC50) fell in the range of 1 to 100 nM.

Take `CCC(CC)Cc1nc2c(cnn2C2CCOCC2)c(=O)[nH]1` [Example 133, 6-(2-Ethyl-butyl)-1-(tetrahydro-pyran-4-yl)-1,5-dihydro-pyrazolo[3,4-d]pyrimidin-4-one]: at human PDE9A2, the inhibition at 10 µM came out at 98% and the IC50 was in the range of 1 to 100 nM.

For the compound `O=c1[nH]c(CC2CCCC2)nc2c1cnn2C1CCOCC1` [Example 134], at human PDE9A2, the inhibition at 10 µM came out at 99% and the IC50 lay in the range of 1 to 100 nM.

As to `O=c1[nH]c(Cc2ccc(F)c(Br)c2)nc2c1cnn2C1CCOCC1` [Example 136], at human PDE9A2, the inhibition at 10 µM was determined as 100% and the half-inhibitory concentration (IC50) fell in the range of 1 to 100 nM.

For `O=c1[nH]c(Cc2ccc(F)c(Cl)c2)nc2c1cnn2C1CCOCC1` [Example 137], on human PDE9A2, the inhibition at 10 µM was found to be 99% and the 50% inhibitory concentration (IC50) was in the range of 1 to 100 nM.

With `O=c1[nH]c(Cc2ccccc2OC(F)(F)F)nc2c1cnn2C1CCOCC1` [Example 138], at human PDE9A2, the inhibition at 10 µM amounted to 100% and the IC50 lay within 1 to 100 nM.

For `O=c1[nH]c(Cc2cccc(F)c2)nc2c1cnn2C1CCOCC1` [Example 139], at human PDE9A2, the inhibition at 10 µM was 99% and the concentration for half-maximal inhibition (IC50) lay in the range of 1 to 100 nM.

In the case of `O=c1[nH]c(Cc2ccc(F)cc2)nc2c1cnn2C1CCOCC1` [Example 140], on human PDE9A2, the inhibition at 10 µM stood at 100% and the IC50 was 1 to 100 nM.

Take `CC(C)Cc1nc2c(cnn2C2CCOCC2)c(=O)[nH]1` [Example 143]: at human PDE9A2, the inhibition at 10 µM was found to be 100% and the IC50 lay in the range of 1 to 100 nM.

As for `O=c1[nH]c(CC2CCCCC2)nc2c1cnn2C1CCOCC1` [Example 144], at human PDE9A2, the inhibition at 10 µM was found to be 100% and the half-maximal inhibitory concentration (IC50) lay in the range of 1 to 100 nM.

For the compound `CN1CCC(n2ncc3c(=O)[nH]c(Cc4ccccc4)nc32)CC1` [Example 148], on human PDE9A2, the inhibition at 10 µM was found to be 86% and the IC50 fell in the range of 101 to 1200 nM.

With `CN1CCC(n2ncc3c(=O)[nH]c(CC4CCCC4)nc32)CC1` [Example 149], on human PDE9A2, the inhibition at 10 µM was found to be 95% and the 50% inhibitory concentration (IC50) was in the range of 101 to 1200 nM.

As to `CN1CCC(n2ncc3c(=O)[nH]c(Cc4ccccc4OC(F)(F)F)nc32)CC1` [Example 150], on human PDE9A2, the inhibition at 10 µM is 90% and the IC50 is 101 to 1200 nM.

Take `CC(=O)N1CCC(n2ncc3c(=O)[nH]c(CC4CCCC4)nc32)CC1` [Example 151]: at human PDE9A2, the inhibition at 10 µM was 92% and the IC50 is 101 to 1200 nM.

On to `CC(=O)N1CCC(n2ncc3c(=O)[nH]c(Cc4ccccc4)nc32)CC1` [Example 152], for which, on human PDE9A2, the inhibition at 10 µM was 93% and the IC50 lay within 101 to 1200 nM.

With `CC(=O)N1CCC(n2ncc3c(=O)[nH]c(Cc4ccccc4OC(F)(F)F)nc32)CC1` [Example 153], on human PDE9A2, the inhibition at 10 µM was determined as 90% and the IC50 fell in the range of 101 to 1200 nM.

On to `O=c1[nH]c(CC2CCCC2)nc2c1cnn2C1CCNCC1` [Example 195], for which, at human PDE9A2, the inhibition at 10 µM amounted to 88% and the half-maximal inhibitory concentration (IC50) lay within 101 to 1200 nM.

Regarding `O=c1[nH]c(Cc2ccccc2)nc2c1cnn2C1CCNCC1` [Example 202], at human PDE9A2, the inhibition at 10 µM worked out at 83% and the 50% inhibitory concentration (IC50) was 101 to 1200 nM.

Take `O=c1[nH]c(Cc2ccccc2OC(F)(F)F)nc2c1cnn2C1CCNCC1` [Example 203]: on human PDE9A2, the inhibition at 10 µM is 84% and the IC50 lay within 101 to 1200 nM.

On to `C=Cc1cc(OC)ccc1Cc1nc2c(cnn2C2CCOCC2)c(=O)[nH]1` [Example 230-4], for which, on human PDE9A2, the inhibition at 10 µM is 98% and the IC50 lay in the range of 101 to 1200 nM.

`O=C1CC(n2ncc3c(=O)[nH]c(CC4CCCC4)nc32)CCO1` (stereo not shown) [Example 233]: on human PDE9A2, the inhibition at 10 µM was 100% and the IC50 is 1 to 100 nM.

With `CCc1cc(OC)ccc1Cc1nc2c(cnn2C2CCOCC2)c(=O)[nH]1` [Example 235], at human PDE9A2, the inhibition at 10 µM is 98% and the IC50 lay within 101 to 1200 nM.

Turning to `O=c1[nH]c(CC2CC2)nc2c1cnn2C1CC[S+]([O-])CC1` (stereo not shown) [Example 236], on human PDE9A2, the inhibition at 10 µM is 93% and the half-maximal inhibitory concentration (IC50) was in the range of 101 to 1200 nM.

For the compound `O=c1[nH]c(CC2CC2)nc2c1cnn2C1CCS(=O)(=O)CC1` [Example 237], at human PDE9A2, the inhibition at 10 µM came out at 89% and the IC50 is 101 to 1200 nM.

Take `CC(C)Cn1c(=O)n(C)c(=O)c2[nH]cnc21` [IBMX]: the “inhibition on the isolated enzyme” value at human PDE9A is listed as “no inhibition”. For the same compound, the “inhibition of murine PDE9A” value at Murine PDE9A is recorded as “not inhibited”.

Turning to `CC(=O)Nc1ccc(-c2c[nH]c(=O)cn2)cc1` [SKF94120], the “inhibition on the isolated enzyme” value at human PDE9A is “no inhibition”.

Regarding `OCCN(CCO)c1nc(N2CCCCC2)c2nc(N(CCO)CCO)nc(N3CCCCC3)c2n1` [dipyridamole], the “inhibition on the isolated enzyme” value on human PDE9A is “no inhibition”.

On to `COc1ccc(C2CNC(=O)C2)cc1OC1CCCC1` (stereo not shown) [rolipram], for which the “inhibition on the isolated enzyme” value at human PDE9A is on record as “no inhibition”.

In the case of `CCOC(=O)C1=C[C@]2(CC)CCCN3CCc4c(n1c1ccccc41)[C@@H]32` [vinpocetine], the “inhibition on the isolated enzyme” value at human PDE9A was “no inhibition”.

These data come from patent US8623879B2, “1-heterocyclyl-1,5-dihydro-pyrazolo[3,4-D] pyrimidin-4-one derivates and their use as PDE9A modulators” (Boehringer Ingelheim International GmbH, priority 2008, dated 2014).
